PubChem BioAssay (NCI)
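Dose response: 5 concentrations. Exposure: 48 h. Format: 96-well plates. Endpoint: linear interpolation; highest concentration if not reached. GI50 = concentration required for 50% inhibition of growth. TGI is the concentration that stops growth completely.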

Key:
Assay in all cases: growth of human tumour cells (NCI), 48 h
786-0 renal = system: 786-0 renal
A498 renal = system: A498 renal
A549 NSCLC = system: A549 NSCLC
ACHN renal = system: ACHN renal
BT-549 breast = system: BT-549 breast
CAKI-1 renal = system: CAKI-1 renal
CCRF-CEM leukemia = system: CCRF-CEM leukemia
DU-145 prostate = system: DU-145 prostate
EKVX NSCLC = system: EKVX NSCLC
HCC-2998 colon = system: HCC-2998 colon
HCT-116 colon = system: HCT-116 colon
HCT-15 colon = system: HCT-15 colon
HL-60(TB) leukemia = system: HL-60(TB) leukemia
HOP-62 NSCLC = system: HOP-62 NSCLC
HOP-92 NSCLC = system: HOP-92 NSCLC
HT29 colon = system: HT29 colon
IGROV1 ovarian = system: IGROV1 ovarian
K-562 leukemia = system: K-562 leukemia
KM12 colon = system: KM12 colon
LOX IMVI melanoma = system: LOX IMVI melanoma
M14 melanoma = system: M14 melanoma
MALME-3M melanoma = system: MALME-3M melanoma
MCF7 breast = system: MCF7 breast
MDA-MB-231 breast = system: MDA-MB-231 breast
MDA-MB-435 = system: MDA-MB-435
MOLT-4 leukemia = system: MOLT-4 leukemia
NCI-H226 lung = system: NCI-H226 lung
NCI-H23 lung = system: NCI-H23 lung
NCI-H460 lung = system: NCI-H460 lung
NCI-H522 lung = system: NCI-H522 lung
NCI/ADR-RES ovarian = system: NCI/ADR-RES ovarian
OVCAR-3 ovarian = system: OVCAR-3 ovarian
OVCAR-4 ovarian = system: OVCAR-4 ovarian
OVCAR-5 ovarian = system: OVCAR-5 ovarian
OVCAR-8 ovarian = system: OVCAR-8 ovarian
PC-3 prostate = system: PC-3 prostate
RPMI-8226 leukemia = system: RPMI-8226 leukemia
RXF 393 renal = system: RXF 393 renal
SF-268 CNS = system: SF-268 CNS
SF-295 CNS = system: SF-295 CNS
SF-539 CNS = system: SF-539 CNS
SK-MEL-2 melanoma = system: SK-MEL-2 melanoma
SK-MEL-5 melanoma = system: SK-MEL-5 melanoma
SK-OV-3 ovarian = system: SK-OV-3 ovarian
SN12C renal = system: SN12C renal
SNB-75 CNS = system: SNB-75 CNS
SR leukemia = system: SR leukemia
SW-620 colon = system: SW-620 colon
T-47D breast = system: T-47D breast
TK-10 renal = system: TK-10 renal
U251 CNS = system: U251 CNS
UACC-257 melanoma = system: UACC-257 melanoma
UACC-62 melanoma = system: UACC-62 melanoma
UO-31 renal = system: UO-31 renal

Structure (SMILES): C[C@]12CCC3c4ccc(O)cc4CCC3C1CC[C@@]2(O)C#Cc1ccc(C#C/C=C\C#Cc2ccccc2N)cc1 (stereo partly drawn)
- GI50 (786-0 renal): 20.5 µM
- TGI (786-0 renal): 57.5 µM
- GI50 (A498 renal): 21.7 µM
- TGI (A498 renal): 41 µM
- GI50 (A549 NSCLC): 32.9 µM
- TGI (A549 NSCLC): > 100 µM
- GI50 (ACHN renal): 17.8 µM
- TGI (ACHN renal): 43.6 µM
- GI50 (BT-549 breast): 19.2 µM
- TGI (BT-549 breast): 45.1 µM
- GI50 (CAKI-1 renal): 20.6 µM
- TGI (CAKI-1 renal): 68.6 µM
- GI50 (CCRF-CEM leukemia): > 100 µM
- TGI (CCRF-CEM leukemia): > 100 µM
- GI50 (DU-145 prostate): 23.9 µM
- TGI (DU-145 prostate): > 100 µM
- GI50 (EKVX NSCLC): 20.3 µM
- TGI (EKVX NSCLC): 65.5 µM
- GI50 (HCC-2998 colon): 25.6 µM
- TGI (HCC-2998 colon): 54.5 µM
- GI50 (HCT-116 colon): 12.3 µM
- TGI (HCT-116 colon): > 100 µM
- GI50 (HCT-15 colon): 22.2 µM
- TGI (HCT-15 colon): > 100 µM
- GI50 (HL-60(TB) leukemia): 26.7 µM
- TGI (HL-60(TB) leukemia): > 100 µM
- GI50 (HOP-62 NSCLC): 28.7 µM
- TGI (HOP-62 NSCLC): 70 µM
- GI50 (HOP-92 NSCLC): 16 µM
- TGI (HOP-92 NSCLC): 46.5 µM
- GI50 (HT29 colon): 25.8 µM
- TGI (HT29 colon): > 100 µM
- GI50 (IGROV1 ovarian): 87.1 µM
- TGI (IGROV1 ovarian): > 100 µM
- GI50 (K-562 leukemia): 12.4 µM
- TGI (K-562 leukemia): 86.5 µM
- GI50 (KM12 colon): 9.66 µM
- TGI (KM12 colon): > 100 µM
- GI50 (LOX IMVI melanoma): 35.8 µM
- TGI (LOX IMVI melanoma): > 100 µM
- GI50 (M14 melanoma): 29.5 µM
- TGI (M14 melanoma): > 100 µM
- GI50 (MALME-3M melanoma): 17.2 µM
- TGI (MALME-3M melanoma): 48.1 µM
- GI50 (MCF7 breast): 0.308 µM
- TGI (MCF7 breast): > 100 µM
- GI50 (MDA-MB-231 breast): 21 µM
- TGI (MDA-MB-231 breast): 53.5 µM
- GI50 (MDA-MB-435): 31.7 µM
- TGI (MDA-MB-435): > 100 µM
- GI50 (MOLT-4 leukemia): 57.5 µM
- TGI (MOLT-4 leukemia): > 100 µM
- GI50 (NCI-H226 lung): 20.2 µM
- TGI (NCI-H226 lung): 48.2 µM
- GI50 (NCI-H23 lung): 26.5 µM
- TGI (NCI-H23 lung): > 100 µM
- GI50 (NCI-H460 lung): 12.6 µM
- TGI (NCI-H460 lung): > 100 µM
- GI50 (NCI-H522 lung): 17 µM
- TGI (NCI-H522 lung): > 100 µM
- GI50 (NCI/ADR-RES ovarian): 17.7 µM
- TGI (NCI/ADR-RES ovarian): 52.2 µM
- GI50 (OVCAR-3 ovarian): 13.8 µM
- TGI (OVCAR-3 ovarian): 48 µM
- GI50 (OVCAR-4 ovarian): 23.6 µM
- TGI (OVCAR-4 ovarian): > 100 µM
- GI50 (OVCAR-5 ovarian): 38.4 µM
- TGI (OVCAR-5 ovarian): > 100 µM
- GI50 (OVCAR-8 ovarian): 47.4 µM
- TGI (OVCAR-8 ovarian): > 100 µM
- GI50 (PC-3 prostate): 15.6 µM
- TGI (PC-3 prostate): 55.3 µM
- GI50 (RPMI-8226 leukemia): 7.56 µM
- TGI (RPMI-8226 leukemia): 79.7 µM
- GI50 (RXF 393 renal): 36.3 µM
- TGI (RXF 393 renal): > 100 µM
- GI50 (SF-268 CNS): 24.8 µM
- TGI (SF-268 CNS): > 100 µM
- GI50 (SF-295 CNS): 17.1 µM
- TGI (SF-295 CNS): > 100 µM
- GI50 (SF-539 CNS): 21.3 µM
- TGI (SF-539 CNS): 52.6 µM
- GI50 (SK-MEL-2 melanoma): 42.2 µM
- TGI (SK-MEL-2 melanoma): > 100 µM
- GI50 (SK-MEL-5 melanoma): 17.9 µM
- TGI (SK-MEL-5 melanoma): 41 µM
- GI50 (SK-OV-3 ovarian): 39.7 µM
- TGI (SK-OV-3 ovarian): > 100 µM
- GI50 (SN12C renal): 21.7 µM
- TGI (SN12C renal): 61.1 µM
- GI50 (SNB-75 CNS): > 100 µM
- TGI (SNB-75 CNS): > 100 µM
- GI50 (SR leukemia): > 100 µM
- TGI (SR leukemia): > 100 µM
- GI50 (SW-620 colon): 40 µM
- TGI (SW-620 colon): > 100 µM
- GI50 (T-47D breast): > 100 µM
- TGI (T-47D breast): > 100 µM
- GI50 (TK-10 renal): 36.6 µM
- TGI (TK-10 renal): > 100 µM
- GI50 (U251 CNS): 19 µM
- TGI (U251 CNS): 80.4 µM
- GI50 (UACC-257 melanoma): 28.7 µM
- TGI (UACC-257 melanoma): > 100 µM
- GI50 (UACC-62 melanoma): 15.2 µM
- TGI (UACC-62 melanoma): 41.2 µM
- GI50 (UO-31 renal): 15.9 µM
- TGI (UO-31 renal): 85.1 µM
